Patent US6555125B2, “Lesion and ulcer medication” (priority 1999, dated 2003)

Experiments:
[1] = system: Streptococcus mutans; details: especially with respect to Streptococcus mutans; cited from earlier work
[2] = Antimicrobial/bacteriostatic effect of zinc oxide at low levels; details: even at low levels

## [O]=[Zn] [Zinc oxide, Zinc Oxide]
[1]
  antimicrobial properties: antimicrobial properties
[2]
  antimicrobial/bacteriostatic effect: effective antimicrobial/bacteriostatic effect
